Measurements from patent US9695155B2, “Herbicidal substituted pyrimidinyloxy benzene compounds” (E. I. DU PONT DE NEMOURS AND COMPANY, priority 2013, dated 2017).

Key:
[1] = tested on: barnyardgrass; experiment: Test A preemergence; type: in vivo, Echinochloa crus-galli; details: for Plant response rating, Barnyardgrass: 125 g ai/ha, 0 to 100 scale where 0 is no effect and 100 is complete control; for Barnyardgrass plant response rating: 500 g ai/ha, 0 to 100 scale, 0 no effect, 100 complete control, approx. 10 days
Method in brief: (§1)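 Visual injury scored 0–100 (100 = complete control) against untreated controls about 10 days after treatment in a greenhouse. Test chemicals, formulated with surfactant in non-phytotoxic solvent, were sprayed on soil preemergence or on 2-10 cm, one- to two-leaf plants postemergence.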

[2] = tested on: kochia; experiment: Test A preemergence; type: in vivo, Kochia scoparia; details: for Plant response rating, Kochia: 125 g ai/ha, 0 to 100 scale where 0 is no effect and 100 is complete control; for Kochia plant response rating: 500 g ai/ha, 0 to 100 scale, 0 no effect, 100 complete control, approx. 10 days
Method in brief: as §1

[3] = tested on: Italian ryegrass; experiment: Test A preemergence; type: in vivo, Lolium multiflorum; details: for Plant response rating, Ryegrass, Italian: 125 g ai/ha, 0 to 100 scale where 0 is no effect and 100 is complete control; for Ryegrass, Italian plant response rating: 500 g ai/ha, 0 to 100 scale, 0 no effect, 100 complete control, approx. 10 days
Method in brief: as §1

[4] = tested on: barnyardgrass; experiment: Test A postemergence; type: in vivo, Echinochloa crus-galli
Method in brief: as §1

[5] = tested on: Italian ryegrass; experiment: Test A postemergence; type: in vivo, Lolium multiflorum; details: 0 to 100 scale where 0 is no effect and 100 is complete control
Method in brief: as §1

[6] = tested on: wheat; experiment: Test A postemergence; type: in vivo, Triticum aestivum; details: 0 to 100 scale where 0 is no effect and 100 is complete control
Method in brief: as §1

[7] = tested on: Italian ryegrass; experiment: Test C preemergence; type: in vivo, Lolium multiflorum; details: for Ryegrass, Italian plant response rating: preemergence; for Plant response rating, Ryegrass, Italian: Preemergence, 31 g ai/ha, scale 0 to 100, 0 no effect, 100 complete control
Method in brief: (§2)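 Whole-plant greenhouse test with surfactant-containing solvent formulation, applied preemergence to sown loam–sand pots or postemergence to 2–18 cm plants. Scored by eye 13 to 15 days on, 0–100 scale.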

[8] = tested on: galium; experiment: Test C preemergence; type: in vivo, Galium aparine; details: for Galium plant response rating: preemergence; for Plant response rating, Galium: Preemergence, 31 g ai/ha, scale 0 to 100, 0 no effect, 100 complete control
Method in brief: as §2

[9] = tested on: johnsongrass; experiment: Test C preemergence; type: in vivo, Sorghum halepense; details: for Johnsongrass plant response rating: preemergence; for Plant response rating, Johnsongrass: Preemergence, 31 g ai/ha, scale 0 to 100, 0 no effect, 100 complete control
Method in brief: as §2

[10] = tested on: morningglory; experiment: Test C preemergence; type: in vivo, Ipomoea coccinea; details: for Morningglory plant response rating: preemergence; for Plant response rating, Morningglory: Preemergence, 31 g ai/ha, scale 0 to 100, 0 no effect, 100 complete control
Method in brief: as §2

[11] = tested on: blackgrass; experiment: Test C postemergence; type: in vivo, Alopecurus myosuroides; details: for Blackgrass plant response rating: 16 g ai/ha, visual rating; for Blackgrass plant response rating / Plant response rating (0 to 100), Blackgrass: postemergence; for Blackgrass plant response rating / Plant response rating, Blackgrass: scale 0 to 100 (0 no effect, 100 complete control); for Plant response rating (0 to 100), Blackgrass: 125 g ai/ha; for Plant response rating, Blackgrass: Postemergence
Method in brief: as §2

[12] = tested on: galium; experiment: Test C postemergence; type: in vivo, Galium aparine; details: for Galium plant response rating: 16 g ai/ha, visual rating; for Galium plant response rating / Plant response rating (0 to 100), Galium: postemergence; for Galium plant response rating / Plant response rating, Galium: scale 0 to 100 (0 no effect, 100 complete control); for Plant response rating (0 to 100), Galium: 125 g ai/ha; for Plant response rating, Galium: Postemergence
Method in brief: as §2

[13] = tested on: giant foxtail; experiment: Test C postemergence; type: in vivo, Setaria faberii; details: for Foxtail, Giant plant response rating: 16 g ai/ha, visual rating; for Foxtail, Giant plant response rating / Plant response rating (0 to 100), Foxtail, Giant: postemergence; for Foxtail, Giant plant response rating / Plant response rating, Foxtail, Giant: scale 0 to 100 (0 no effect, 100 complete control); for Plant response rating (0 to 100), Foxtail, Giant: 125 g ai/ha; for Plant response rating, Foxtail, Giant: Postemergence
Method in brief: as §2

[14] = tested on: lambsquarters; experiment: Test C postemergence; type: in vivo, Chenopodium album; details: for Plant response rating (0 to 100), Lambsquarters: 125 g ai/ha, postemergence; for Plant response rating, Lambsquarters: Postemergence, scale 0 to 100 (0 no effect, 100 complete control)
Method in brief: as §2

[15] = tested on: ragweed; experiment: Test C postemergence; type: in vivo, Ambrosia elatior; details: for Plant response rating (0 to 100), Ragweed: 125 g ai/ha, postemergence; for Plant response rating, Ragweed: Postemergence, scale 0 to 100 (0 no effect, 100 complete control)
Method in brief: as §2

[16] = tested on: soybean; experiment: Test C postemergence; type: in vivo, Glycine max; details: for Plant response rating (0 to 100), Soybean: 125 g ai/ha, postemergence; for Plant response rating, Soybean: Postemergence, scale 0 to 100 (0 no effect, 100 complete control)
Method in brief: as §2

[17] = tested on: velvetleaf; experiment: Test C postemergence; type: in vivo, Abutilon theophrasti; details: for Plant response rating (0 to 100), Velvetleaf: 125 g ai/ha, postemergence; for Plant response rating, Velvetleaf: Postemergence, scale 0 to 100 (0 no effect, 100 complete control)
Method in brief: as §2

[18] = 125 g ai/ha, 0 to 100 scale where 0 is no effect and 100 is complete control
[19] = 16 g ai/ha, scale 0 to 100 (0 no effect, 100 complete control)
[20] = 62 g ai/ha, scale 0 (no effect) to 100 (complete control)
[21] = 125 g ai/ha, scale 0 (no effect) to 100 (complete control)

Cc1cnc(Oc2cccc(C#N)c2-n2cc(C#N)cn2)nc1 [Compound 90]
Plant response rating, Barnyardgrass [1]: 70 | Barnyardgrass plant response rating [1]: 100 | Plant response rating, Kochia [2]: 100 | Kochia plant response rating [2]: 100 | Plant response rating, Ryegrass, Italian [3]: 0 | Ryegrass, Italian plant response rating [3]: 30 | Plant response rating, Barnyardgrass [4, 18]: 90 | Plant response rating, Barnyardgrass ([4]; 500 g ai/ha, 0 to 100 scale where 0 is no effect and 100 is complete control): 100 | Plant response rating, Ryegrass, Italian ([5]; 125 g ai/ha): 30 | Plant response rating, Ryegrass, Italian ([5]; 500 g ai/ha): 80 | Plant response rating, Wheat ([6]; 125 g ai/ha): 0 | Plant response rating, Wheat ([6]; 500 g ai/ha): 50 | Ryegrass, Italian plant response rating [7, 19]: 0 | Ryegrass, Italian plant response rating [7, 20]: 0 | Ryegrass, Italian plant response rating [7, 21]: 50 | Plant response rating, Ryegrass, Italian [7]: 0 | Galium plant response rating [8, 19]: 5 | Galium plant response rating [8, 20]: 100 | Galium plant response rating [8, 21]: 98 | Plant response rating, Galium [8]: 5 | Johnsongrass plant response rating [9, 19]: 5 | Johnsongrass plant response rating [9, 20]: 20 | Johnsongrass plant response rating [9, 21]: 80 | Plant response rating, Johnsongrass [9]: 10 | Morningglory plant response rating [10, 19]: 0 | Morningglory plant response rating [10, 20]: 55 | Morningglory plant response rating [10, 21]: 100 | Plant response rating, Morningglory [10]: 20 | Blackgrass plant response rating ([11]; 13 to 15 days): 0 | Plant response rating (0 to 100), Blackgrass [11]: 15 | Plant response rating, Blackgrass ([11]; 31 g ai/ha, 13 to 15 days): 0 | Plant response rating, Blackgrass ([11]; 62 g ai/ha): 5 | Galium plant response rating ([12]; 13 to 15 days): 70 | Plant response rating (0 to 100), Galium [12]: 85 | Plant response rating, Galium ([12]; 31 g ai/ha, 13 to 15 days): 55 | Plant response rating, Galium ([12]; 62 g ai/ha): 65 | Foxtail, Giant plant response rating ([13]; 13 to 15 days): 35 | Plant response rating (0 to 100), Foxtail, Giant [13]: 20 | Plant response rating, Foxtail, Giant ([13]; 31 g ai/ha, 13 to 15 days): 15 | Plant response rating, Foxtail, Giant ([13]; 62 g ai/ha): 20 | Plant response rating (0 to 100), Lambsquarters [14]: 60 | Plant response rating, Lambsquarters ([14]; 31 g ai/ha, 13 to 15 days): 75 | Plant response rating, Lambsquarters ([14]; 62 g ai/ha): 60 | Plant response rating (0 to 100), Ragweed [15]: 65 | Plant response rating, Ragweed ([15]; 31 g ai/ha, 13 to 15 days): 40 | Plant response rating, Ragweed ([15]; 62 g ai/ha): 50 | Plant response rating (0 to 100), Soybean [16]: 60 | Plant response rating, Soybean ([16]; 31 g ai/ha, 13 to 15 days): 65 | Plant response rating, Soybean ([16]; 62 g ai/ha): 75 | Plant response rating (0 to 100), Velvetleaf [17]: 60 | Plant response rating, Velvetleaf ([17]; 31 g ai/ha, 13 to 15 days): 55 | Plant response rating, Velvetleaf ([17]; 62 g ai/ha): 60

CC(C)c1cnn(-c2c(C#N)cccc2Oc2ncc(Cl)cn2)c1 [Compound 85]
Plant response rating, Barnyardgrass [1]: 20 | Barnyardgrass plant response rating [1]: 100 | Plant response rating, Kochia [2]: 80 | Kochia plant response rating [2]: 100 | Plant response rating, Ryegrass, Italian [3]: 0 | Ryegrass, Italian plant response rating [3]: 40 | Plant response rating, Barnyardgrass [4, 18]: 90 | Plant response rating, Barnyardgrass ([4]; 500 g ai/ha, 0 to 100 scale, 0 no effect, 100 complete control): 90 | Plant response rating, Ryegrass, Italian ([5]; 125 g ai/ha): 60 | Plant response rating, Ryegrass, Italian ([5]; 500 g ai/ha): 100 | Plant response rating, Wheat ([6]; 125 g ai/ha): 0 | Plant response rating, Wheat ([6]; 500 g ai/ha): 70 | Ryegrass, Italian plant response rating [7, 19]: 0 | Ryegrass, Italian plant response rating [7, 20]: 0 | Ryegrass, Italian plant response rating [7, 21]: 50 | Plant response rating, Ryegrass, Italian [7]: 0 | Galium plant response rating [8, 19]: 0 | Galium plant response rating [8, 20]: 50 | Galium plant response rating [8, 21]: 85 | Plant response rating, Galium [8]: 0 | Johnsongrass plant response rating [9, 19]: 15 | Johnsongrass plant response rating [9, 20]: 55 | Johnsongrass plant response rating [9, 21]: 85 | Plant response rating, Johnsongrass [9]: 20 | Morningglory plant response rating [10, 19]: 0 | Morningglory plant response rating [10, 20]: 0 | Morningglory plant response rating [10, 21]: 20 | Plant response rating, Morningglory [10]: 0 | Blackgrass plant response rating ([11]; 13 to 15 days): 0 | Plant response rating (0 to 100), Blackgrass [11]: 10 | Plant response rating, Blackgrass ([11]; 31 g ai/ha, 13 to 15 days): 0 | Plant response rating, Blackgrass ([11]; 62 g ai/ha): 5 | Galium plant response rating ([12]; 13 to 15 days): 40 | Plant response rating (0 to 100), Galium [12]: 75 | Plant response rating, Galium ([12]; 31 g ai/ha, 13 to 15 days): 50 | Plant response rating, Galium ([12]; 62 g ai/ha): 50 | Foxtail, Giant plant response rating ([13]; 13 to 15 days): 5 | Plant response rating (0 to 100), Foxtail, Giant [13]: 15 | Plant response rating, Foxtail, Giant ([13]; 31 g ai/ha, 13 to 15 days): 10 | Plant response rating, Foxtail, Giant ([13]; 62 g ai/ha): 10 | Plant response rating (0 to 100), Lambsquarters [14]: 70 | Plant response rating, Lambsquarters ([14]; 31 g ai/ha, 13 to 15 days): 55 | Plant response rating, Lambsquarters ([14]; 62 g ai/ha): 75 | Plant response rating (0 to 100), Ragweed [15]: 65 | Plant response rating, Ragweed ([15]; 31 g ai/ha, 13 to 15 days): 20 | Plant response rating, Ragweed ([15]; 62 g ai/ha): 20 | Plant response rating (0 to 100), Soybean [16]: 90 | Plant response rating, Soybean ([16]; 31 g ai/ha, 13 to 15 days): 75 | Plant response rating, Soybean ([16]; 62 g ai/ha): 65 | Plant response rating (0 to 100), Velvetleaf [17]: 55 | Plant response rating, Velvetleaf ([17]; 31 g ai/ha, 13 to 15 days): 45 | Plant response rating, Velvetleaf ([17]; 62 g ai/ha): 45
